Laboratory results as given in US5055472A, “Pyrazolopyrimidine type mevalonolactones” (Nissan Chemical Industries, Ltd., priority 1988, dated 1991).

Tests used:
cholesterol biosynthesis [1] = test: Test A: Inhibition of cholesterol biosynthesis from acetate in vitro; format: biochemical, male Wistar rat; conditions: relative to CS-514 = 1 (Test A)
Procedure: Enzyme solution was prepared from liver of male Wistar rat billialy connulated and discharged bile for over 24 hours. Liver was cut out at mid-dark and microsome and supernatant fraction which was precipitable with 40-80% of solution of ammonium sulfate (sup fraction) were prepared from liver homogenate according to the modified method of Knauss et. al.; Kuroda, M., et. al., Biochim. Biophys. Acta, 489, 119 (1977). For assay of cholesterol biosynthesis, microsome (0.1 mg protein) and sup fraction (1.0 mg protein) were incubated for 2 hours at 37° C. in 200 μl of the reaction mixture containing ATP; 1 mM, Glutathione; 6 mM, Glucose-1-phosphate; 10 mM, NAD; 0.25 mM, NADP; 0.25 mM, CoA; 0.04 mM and 0.2 mM [2-^14 C]sodium acetate (0.2 μCi) with 4 μl of test compound solution dissolved in water or dimethyl sulfoxide. To stop reaction and saponify, 1 ml of 15% EtOH-KOH was added to the reactions and heated at 75° C. for 1 hour. Nonsaponifiable, lipids were extracted with petroleum ether and incorporated ^14 C radioactivity was counted. Inhibitory activity of compounds was indicated with IC50.
With respect to the compounds of the present invention, the inhibitory activities against the cholesterol biosynthesis in which HMG-CoA reductase serves as a rate limiting enzyme, were measured by the above Test A and B. The results are shown in Tables 2, 3-1 and 3-2.
The relative activities of the compounds of the present invention based on the activities of CS-514 by Test A being evaluated to be 1, are shown in Table 2.

[2] = system: cholesterol biosynthesis in Hep G2 cells; test: Test B-1: Inhibition of cholesterol biosynthesis in culture cells (Hep G2); format: cell-based; conditions: for inhibition at 1 µM: 1.0 × 10^-6 mol/l, Hep G2 cells, read-out: Inhibitory activities at a concentration of 1.0 × 10^-6 mol/l by Test B-1 (Relative activities); for Relative activities by Test B-1: relative to CS-514 = 1 (Test B-1)
Procedure: Hep G2 cells at over 5th passage were seeded to 12 well plates and incubated with Dulbecco's modified Eagle (DME) medium containing 10% of fetal bovine serum (FBS) at 37° C., 5% CO2 until cells were confluent for about 7 days. Cells were exposed to the DME medium contaiing 5% of lipoprotein deficient serum (LpDS) prepared by ultracentrifugation method for over 24 hours. Medium was changed to 0.5 ml of fresh 5% LpDS containing DME before assay and 10 μl of test compound solution dissolved in water or DMSO were added. 0.2 μCi of [2-^14 C]sodium acetate (20 μl ) was added at 0 hr(B-1) or 4 hrs(B-2) after addition of compounds. After 4 hrs further incubation with [2-^14 C]sodium acetate, medium was removed and cells were washed with phosphate buffered saline (PBS) chilled at 4° C. Cells were scraped with rubber policeman and collected to tubes with PBS and digested with 0.2 ml of 0.5 N KOH at 37° C. Aliquot of digestion was used for protein analysis and remaining was saponified with 1 ml of 15% EtOH-KOH at 75° C. for 1 hour. Nonsaponifiable lipids were extracted with petroleum ether and ^14 C radioactivity was counted. Counts were revised by cell protein and indicated with DPM/mg protein. Inhibitory activity of compounds was indicated with IC50. With respect to the compounds of the present invention, the inhibitory activities against the cholesterol biosynthesis in which HMG-CoA reductase serves as a rate limiting enzyme, were measured by the above Test A and B.

Test D: Acute toxicity = conditions: mouse, in vivo, 1000 mg/kg; 1,000 mg/kg oral, 0.5% CMC suspension, ICR male mice, after seven days
Procedure: A 0.5% CMC suspension of a test compound was orally administered to ICR male mice (group of three mice). The acute toxicity was determined based on the mortality after seven days. With compound I 5-4 and I-5-6 of the present ivnention, the mortality was 0% even when they were orally administered in an amount of 1,000 mg/kg, respectively.

cholesterol biosynthesis [3] = test: Test C: Inhibition of cholesterol biosynthesis in vivo; parameters: species or system Male Sprague-Dawley rats; conditions: 0.2 mg/kg, oral administration, rats
Procedure: Male Sprague-Dawley rats weighing about 150 g were fed normal Purina chow diet and water ad libitum, and exposed to 12 hours light/12 hours dark lighting pattern (2:00 PM-2:00 AM dark) prior to use for in vivo inhibition test of cholesterol biosynthesis. Animals were separated groups consisting of five rats as to be average mean body weight in each groups. Test compounds at dosage of 0.02-0.2 mg/kg body weight (0.4 ml/100 g body weight), were dissolved in water or suspended in 0.5% methyl cellulose and orally administered at 2-3 hours before mid-dark (8:00 PM), while cholesterol biosynthesis reaches to maximum in rats. As control, rats were orally administered only water or vehicle. At 90 minutes after sample administration, rats were injected intraperitoneally with 10 μCi of [2-^14 C]sodium acetate at volume of 0.2 ml per one. 2 Hours later, blood samples were obtained and serum were separated immediately. Total lipids were extracted according to the method of Folch et al. and saponified with EtOH-KOH. Nonsaponifiable lipids were extracted with petroleum ether and radio activity incorporated into nonsaponifiable lipids was counted. Inhibitory activity was indicated as percent decrease of counts in testing groups (DPM/2 ml serum/2 hours) from that in control group.

## Cc1cc2nc(C3CC3)c(/C=C/C(O)CC(O)CC(=O)O)c(-c3ccc(F)cc3)n2n1 (stereo not shown) [Compound I-5-4]
Cholesterol biosynthesis [1]
  Relative activities by Test A: 0.39
[2]; Homo sapiens, HepG2
  inhibition at 1 µM: 57.1%
Test D: Acute toxicity
  mortality at 168 h: 0%

## CC(C)c1cc2nc(C3CC3)c(/C=C/C(O)CC(O)CC(=O)O)c(-c3ccc(F)cc3)n2n1 (stereo not shown) [Compound I-5-8]
Cholesterol biosynthesis [1]
  Relative activities by Test A: 0.09

## Cc1cc2nc(C(C)C)c(/C=C/C(O)CC(O)CC(=O)O)c(-c3ccc(F)cc3)n2n1 (stereo not shown) [Compound I-5-1, Sodium (E)-7-[7'-(4"-fluorophenyl)-2'-methyl-5'-(1"-methylethyl)pyrazolo[1,5-a]pyrimidin-6'-yl]-3,5-dihydroxyhept-6-enoate]
Cholesterol biosynthesis [1]
  Relative activities by Test A: 0.64
[2]; Homo sapiens, HepG2
  inhibition at 1 µM: 53.9%
Cholesterol biosynthesis [3]
  percent decrease of counts relative to control group: 50%

## Cc1nn2c(-c3ccc(F)cc3)c(/C=C/C(O)CC(O)CC(=O)O)c(C3CC3)nc2c1C (stereo not shown) [Compound I-5-5]
Cholesterol biosynthesis [1]
  Relative activities by Test A: 0.29
[2]; Homo sapiens, HepG2
  inhibition at 1 µM: 55.3%

## Cc1nn2c(-c3ccc(F)cc3)c(/C=C/C(O)CC(O)CC(=O)O)c(C3CC3)nc2c1-c1ccccc1 (stereo not shown) [Compound I-5-6]
Cholesterol biosynthesis [1]
  Relative activities by Test A: 0.75
[2]; Homo sapiens, HepG2
  inhibition at 1 µM: 58%
Test D: Acute toxicity
  mortality at 168 h: 0%

## CCOC(=O)CC(O)CC(O)/C=C/c1c(C(C)C)nc2cc(C)nn2c1-c1ccc(F)cc1 (stereo not shown) [Compound I-1-1, Ethyl (E)-7-[7'-(4"-fluorophenyl)-2'-methyl-5'-(1"-methylethyl)pyrazolo[1,5-a]pyrimidin-6'-yl]-3,5-dihydroxyhept-6-enoate]
[2]; Homo sapiens, HepG2
  inhibition at 1 µM: 67.3%
[2]
  Relative activities by Test B-1: 17.8

## CC(C)c1nc2c3c(nn2c(-c2ccc(F)cc2)c1/C=C/C(O)CC(O)CC(=O)O)CCCC3 (stereo not shown) [Compound I-5-9]
Cholesterol biosynthesis [1]
  Relative activities by Test A: 0.13

## CC(C)c1nc2cc(-c3ccccc3)nn2c(-c2ccc(F)cc2)c1/C=C/C(O)CC(O)CC(=O)O (stereo not shown) [Compound I-5-3]
Cholesterol biosynthesis [1]
  Relative activities by Test A: 0.27
[2]; Homo sapiens, HepG2
  inhibition at 1 µM: 66.3%
[2]
  Relative activities by Test B-1: 26.0

## CC(C)c1nc2cc(C(C)(C)C)nn2c(-c2ccc(F)cc2)c1/C=C/C(O)CC(O)CC(=O)O (stereo not shown) [Compound I-5-2]
Cholesterol biosynthesis [1]
  Relative activities by Test A: 0.09
[2]; Homo sapiens, HepG2
  inhibition at 1 µM: 44.6%

## CCC(C)C(=O)OC1CC(O)C=C2C=CC(C)C(CCC(O)CC(O)CC(=O)O)C21 (stereo not shown) [CS-514, reference compound]
[2]; Homo sapiens, HepG2, Test B-1, Hep G2 cells, [2-14C]sodium acetate added at 0 hr, read-out: IC50 in Test B1
  IC50: 3.66 µM
Cholesterol biosynthesis [3]
  percent decrease of counts relative to control group: 34%

## CC(C)c1nc2cc(-c3ccco3)nn2c(-c2ccc(F)cc2)c1/C=C/C(O)CC(O)CC(=O)O (stereo not shown) [Compound I-5-7]
Cholesterol biosynthesis [1]
  Relative activities by Test A: 0.20

## CCOC(=O)CC(O)CC(O)/C=C/c1c(C(C)C)nc2cc(-c3ccccc3)nn2c1-c1ccc(F)cc1 (stereo not shown) [Compound I-1-3]
[2]; Homo sapiens, HepG2
  inhibition at 1 µM: 66.1%
[2]
  Relative activities by Test B-1: 29.5
